Source: patent US20080188449A1, “Treatment of Conditions Caused By Calcium Abnormalities” (priority 2004, published 2008)

Experiments:
[1] = test system: Pkd1^−/− murine kidney epithelial cells; assay: Growth, p21 and active caspase-3 in Pkd1^−/− cells; assay type: cell-based
Experimental: (§1) Calcium response to triptolide was, thus, shown to be dependent on polycystin-2. The biological response to calcium flux was next assessed in the murine Pkd1^−/− cell line, by adding 100 nM triptolide to the cultured cells and observing cell growth over time. Within the first 24 hours of culture, a minimal number of detached cells was observed. […] In the absence of triptolide, this cell line underwent a population doubling every 48 hours. […] It is possible that additional signaling pathways are activated by triptolide when Pkd1 is expressed. […] Therefore, Applicants assessed whether the inhibition of proliferation observed was due to p21 re-expression upon triptolide treatment.
(§2) The Pkd1^−/−(MN24), Pkd2^+/−(3B3) and Pkd2^−/−(2D2) murine cell lines were derived from knockout and transgenic mice as previously reported (Wu, et al., 1998, Cell, 93:177-88; Wu, et al., 2000, Nat. Genet, 24:75-8; Wu, et al., 2002, Hum Mol Genet, 11:1845-54). The PKD2-Rex cell line was made by stable integration of untagged PKD2 under hygromycin selection. Antibodies used included polycystin-2 (Cai, et al. 1999, J Biol Chem, 274:28557-65), cleaved (active) caspase-3 (Cell Signaling Technology) and p21 (BD Biosciences). Triptolide was obtained from Sinobest Inc. (China) and purity was 99% as determined by HPLC. DMSO was used to dissolve triptolide and was then directly added into culture media for all experiments. Triptolide was tritiated by Sib Tech, Inc. (Newington, Conn.) and resuspended in ethanol to a specific activity of 4-6 Ci/mmol. Purity was >95% as confirmed by RP-HPLC on a Hypersil C18 column and by TLC on both C18 and silica gel.
Total cell lysates (0.5% Triton X-100, 50 mM Tris pH 7.4, 150 mM NaCl, […]) were prepared for Western blot analysis and samples were run out by SDS-PAGE as per manufacturers' protocols. Brightfield images of cells were taken using a 10× or 40× objective. Confocal microscopy (40×) was used for immunofluorescence imaging of polycystin-2.

[2] = test system: Pkd2^+/− murine cell line; assay: Viability of Pkd2^+/− cells; assay type: cell-based; conditions: 100 nM
Experimental: as §1
as §2, with “Triptolide was tritiated by Sib Tech, Inc. (Newington, Conn.) and resuspended in ethanol to a specific activity of 4-6 Ci/mmol. Purity was >95% as confirmed by RP-HPLC on a Hypersil C18 column and by TLC on both C18 and silica gel.” left out

[3] = test system: Pkd1^−/− murine model of polycystic kidney disease; assay: Pkd1^−/− murine model of polycystic kidney disease, treatment during gestation; assay type: in vivo, mice
Experimental: Following successful Pkd1^+/−/Pkd1^+/− matings, 0.07 mg/kg/day of triptolide or DMSO control was injected i.p. into pregnant mice until they gave birth. All pups were assessed for viability, length, developmental staging, and wet kidney weight. A total of 59 pups from DMSO treated females and 100 pups from triptolide treated females were examined for multiple parameters, such as genotypic distribution, developmental stage at time of birth, and average kidney weights (Table 1). […] Approximately 20% of all Pkd1^−/− mice were born alive from each treatment group. However, severe edematous abnormalities were obvious upon necropsy.
As per approved IACUC animal protocol, Pkd1^+/−/Pkd1^+/− mice were mated and pregnant mice were divided into control (DMSO) or experimental (triptolide) groups. A total volume of 100 μl of PBS with no more than 5% DMSO or DMSO/0.07 mg/kg/day triptolide was injected i.p. with a 28 G ½ insulin syringe. Mice were weighed and injected starting at E10.5 until birth. All pups were examined for length and developmental staging such as whisker formation. Kidneys were harvested, weighed, and fixed in 4% paraformaldehyde before histological preparation.
Kidneys were prepared by sagittal cross-sectioning and hematoxylin and eosin staining. All kidneys were photographed under the same magnification (4×) and cystic burden was computed using Image J analysis software (NIH). The area of cysts within the total area of the kidney (pixels) was calculated as a final percentage of cystic burden in the kidney. Immunohistochemical analysis of active caspase-3 was completed as per manufacturer's protocol.

adult animal = assay: Tolerability in adult animal; assay type: in vivo
Description: Since ADPKD has no proven therapeutic cure or treatment, Applicants believe it is encouraging as a preliminary step to observe triptolide-mediated growth arrest and attenuation of cyst progression. […] In summary, Applicants have established a novel pathway for triptolide mediated calcium release in a polycystin-2 dependent pathway that can reduce cystic burden in the kidneys of PKD mice. It is hopeful therefore that if fully developed, triptolide would be an ideal candidate for drug therapy as its history as an herbal therapy has already shown it to be well tolerated in humans.

NFκB transactivation = assay: κB-luciferase reporter assay (TNF-α induced); assay type: cell-based; conditions: 10 nM triptolide+TNF-α, after 24 hours
[4] = 0.07 mg/kg/day i.p. to pregnant mice, E10.5 until birth

CC(C)[C@]12O[C@H]1[C@@H]1O[C@]13[C@]1(O[C@H]1C[C@H]1C4=C(CC[C@@]13C)C(=O)OC4)[C@@H]2O [triptolide, Triptolide]
active caspase-3 (western blot) ([1]; 100 nM time course): failed to implicate triptolide induced apoptosis | p21 expression (western blot) ([1]; 100 nM, 96 hour time course): upregulated | cell growth ([1]; 100 nM, over 96 hours): growth arrested | cell death [2]: rapid cell death within 24 hours | Alive Pkd1^−/− (birth) (number) [3, 4]: 4 | Alive Pkd1^−/− (birth) (percent) [3, 4]: Approximately 20% | Alive Pkd1^−/− (birth) (percent) ([3]; 0.07 mg/kg/day i.p. to pregnant mice, E10.5 until birth, listed as Triptolide): 22% | diameter of cyst lumens on average ([3]; Pkd1^−/− kidneys): smaller | active caspase-3 immunoreactivity in kidney sections ([3]; Pkd1^−/− kidneys, IHC): did not show any significant activation of the caspase pathway | kidney morphology ([3]; mouse, in vivo): normal morphology | dose that did not adversely affect health (adult animal): greater than 0.15 mg/kg/day | luciferase activity induction (NFκB transactivation): > 20 fold
